According to publication PMC11539218 (Antimicrobial Agents and Chemotherapy, 2024):

Experiments:
[1] = tested on: L. (L.) infantum promastigotes; assay: Mitochondrial membrane electric potential (JC-1, flow cytometry); format: cell-based, Leishmania (L.) infantum; settings: compound 1 169.2 µM, CCCP 10 µM; 2 and 4 h; JC-1 BL-2/BL-1 ratio; vs untreated
Procedure: Promastigotes (2 × 10^6/well) were treated with compound 1 (169.2 µM) for 2 and 4 h, at 24°C. Then, JC-1 (10 µM) was added and the parasites were incubated for 20 min. Fluorescence was measured in a flow cytometer with an excitation wavelength of 488 nm and emission of 530 (BL-1) and 574 nm (BL-2). Mitochondrial membrane potential was established through the ratio of BL-2/BL-1 channels ([19]). Carbonyl cyanide m-chlorophenylhydrazone (CCCP) (10 µM) was employed as positive control and untreated parasites as negative control.

[2] = tested on: L. (L.) infantum promastigotes; assay: DNA content / integrity (agarose gel electrophoresis); format: cell-based, Leishmania (L.) infantum; settings: compound 1 169.2 µM, H2O2 10 mM; 24 h; 2% agarose gel
Procedure: Promastigotes (1 × 10^7/well) were treated with compound 1 (169.2 μM) in M199 medium supplemented with 10% FBS and 0.25% hemin, pH 7.2, for 24 h at 24°C. Then, the genetic material was extracted using the QIAamp DNA Mini Kit, according to the manufacturer’s instructions. Total DNA quantification was performed in a NanoDrop ND-1000 spectrophotometer (260/280 nm). The purified genetic material (300 ng) was analyzed by electrophoresis for 1 h at […] in a 2% agarose gel with ethidium bromide (0.5 µg/mL). Visualization was performed under UV light in a MiniBIS Pro transilluminator (DNR Bio Imaging System) ([21]). H2O2 (10 mM) was employed as positive control and untreated parasites as negative control ([26]).

L. (L.) donovani = tested on: L. (L.) donovani; parameters: method as in PMID 29061745; settings: with subsequent increase in Ca2+ and collapse of mitochondrial membrane potential; cited from earlier work
[3] = tested on: L. (L.) infantum promastigotes; assay: Cell cycle (propidium iodide, flow cytometry); format: cell-based, Leishmania (L.) infantum; settings: 24 h; compound 1 169.2 µM, miltefosine 25 µM
Procedure: Promastigotes (2 × 10^6/well) in exponential phase, were treated with compound 1 (169.2 µM) in M199 medium supplemented with 10% FBS and 0.25% hemin, pH 7.2, for 24 h at 24°C. In sequence, 70% (vol/vol) ice-cold ethanol was used for cell permeabilization overnight at −20°C. Then, the parasites were incubated with propidium iodide (10 µg/mL) and RNase A (20 µg/mL) for 30 min. […] Miltefosine (25 µM) was employed as positive control and untreated parasites as negative control ([25]).

[4] = parameters: method as in PMID 34695563; settings: plasma half-life; cited from earlier work
[5] = tested on: L. (L.) infantum promastigotes; format: cell-based, Leishmania (L.) infantum; settings: compound 1 169.2 µM, sodium azide 10 mM; 2 and 4 h; H2DCFDA; vs untreated
Procedure: Promastigotes (2 × 10^6/well) were treated with compound 1 (169.2 µM) for 2 and 4 h, at 24°C. Later, H2DCFDA (5 µM) was added and the parasites were incubated for 15 min. Fluorescence was monitored in a spectrofluorometer with excitation and emission wavelengths of 485 and 535 nm, respectively ([19]). Sodium azide (10 mM) was employed as positive control and untreated parasites as negative control.

[6] = tested on: L. (L.) infantum promastigotes; assay: Plasma membrane permeability (Sytox Green); format: cell-based, Leishmania (L.) infantum; settings: compound 1 169.2 µM, Triton X-100 0.5%, up to 4 h
Procedure: Promastigotes (2 × 10^6/well) were pretreated with Sytox Green (1 µM) for 15 min, at 24°C. Then, compound 1 (169.2 µM) was added and the fluorescence was monitored every 20 min up to 4 h in a spectrofluorometer, with excitation and emission wavelengths of 485 and 535 nm, respectively ([17]). Triton X-100 (0.5% vol/vol) was employed as positive control and untreated parasites as negative control ([18]).

[7] = tested on: Peritoneal macrophages infected with L. (L.) infantum; assay: Cytokines in infected macrophages (ELISA); format: cell-based, BALB/c mice; settings: positive control 5 µg/mL
Procedure: L. (L.) infantum (MHOM/BR/1972/LD) promastigotes were maintained in M199 medium supplemented with 10% FBS and 0.25% hemin, pH 7.2 at 24°C. Amastigotes were isolated from golden hamsters (M. auratus) by differential centrifugation of infected spleens and the parasite’s number was determined according to Stauber ([14]). Peritoneal macrophages were obtained from the peritoneal cavity of BALB/c mice and maintained in RPMI-1640 medium supplemented with 10% FBS, pH 7.2 at 37°C.
Peritoneal macrophages (1 × 10^6/well) were infected with L. (L.) infantum […] (10:1 amastigotes/macrophage) for 24 h, at 37°C with 5% CO2. Subsequently, compound 1 (10 and 60 µM) was added and the incubation followed the same conditions described above. Cell supernatants were collected after 48 and 72 h and the cytokines (IL-4, IL-10, IL-12, and INF-γ) were measured using the BD OptEIA Mouse ELISA set kits, according to the manufacturer’s instructions. Concanavalin A (5 µg/mL) was employed as positive control and untreated cells as negative control.

N#CC(C#N)=NNc1cccc(Cl)c1 [CCCP, Carbonyl cyanide m-chlorophenylhydrazone, reference compound]
mitochondrial membrane electric potential (ΔΨm) [1]: Maximum depolarization

OO [H2O2, reference compound]
integrity of the genetic content (DNA) [2]: DNA fragmentation

CCCCCCCCCCCCCCCCOP(=O)([O-])OCC[N+](C)(C)C [Miltefosine, reference compound]
effect on acidocalcisomes (L. (L.) donovani): alkalinization of acidocalcisomes | Proportion of parasites in different phases of the cell cycle (% ± SD): G0/G1 [3]: 53.8 ± 0.1 % | Proportion of parasites in different phases of the cell cycle (% ± SD): M/G2 [3]: 18.1 ± 0.4% | Proportion of parasites in different phases of the cell cycle (% ± SD): S [3]: 10.5 ± 0.3% | Proportion of parasites in different phases of the cell cycle (% ± SD): Sub G0 [3]: 7.1 ± 0.6 % | T1/2 [4]: approximately 126 h

[N-]=[N+]=[N-].[Na+] [sodium azide, Sodium azide, reference compound]
ROS levels [5]: increased ROS production

Triton X-100 [reference compound]
plasma membrane permeability [6]: significative permeabilization

concanavalin A [reference compound]
production of cytokines (IL-4, IL-10, IL-12, INF-γ) [7]: tendency to increase
